Reference: patent publication US20110172296A1, “MODULATION OF TRANSFORMING GROWTH FACTOR-BETA 1 EXPRESSION” (priority 2010, published 2011)
Several values for one entry are separate records, joined by “and”; a condition that tells them apart may be missing. Equal entries are not always repeated. In the oligonucleotide strings, read from the 5' end, every base follows the letter of its sugar. An asterisk marks phosphorothioate; unmarked linkages are phosphodiester. Other units and linkages are bracketed, terminal groups are in braces. A string of capitals states the bases alone. e = 2'-O-(2-methoxyethyl) (MOE); [5mC] = 5-methylcytosine; d = 2'-deoxy (DNA)

Legend:
human TGF-beta1 mRNA [1] = assay: Dose-dependent antisense inhibition of human TGF-beta1 in HuVEC cells, Lipofectamine 2000, 0.9375-30 nM (Example 3); assay type: cell-based; conditions: for percent inhibition of TGF-beta1: Lipofectamine 2000; for IC50: Lipofectamine 2000, Example 3
Method: Cells were plated at a density of 5,000 cells per well and transfected using Lipofectamine™ 2000 reagent with 0.9375 nM, 1.875 nM, 3.75 nM, 7.5 nM, 15 nM, and 30 nM concentrations of antisense oligonucleotide for 4 hours, as specified in Table 3. After a recovery period of approximately 16 hours, RNA was isolated from the cells and TGF-beta1 mRNA levels were measured by quantitative real-time PCR. Human TGF-beta1 primer probe set RTS 2980 (forward sequence CTCTCCGACCTGCCACAGA, SEQ ID NO: 160; reverse sequence […], SEQ ID NO: 53; probe sequence CCCTATTCAAGACCACCCACCTTCTGGTX, SEQ ID NO: 161) was used to measure mRNA levels. TGF-beta1 mRNA levels were adjusted according to total RNA content, as measured by RIBOGREEN®. Results are presented as percent inhibition of TGF-beta1, relative to untreated control cells.

human TGF-beta1 mRNA [2] = assay: Antisense inhibition of human TGF-beta1 mRNA in HuVEC cells, single 10 nM dose, Lipofectamine 2000 (Example 2); assay type: cell-based; conditions: for % inhibition: 10 nM oligonucleotide, HuVEC, relative to untreated control cells; for inhibition of a TGF-beta1 mRNA: threshold lists of Oligo IDs, 10 nM
Method in brief: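 Percent inhibition relative to untreated controls, from qRT-PCR of mRNA corrected for total RNA (RIBOGREEN). Cells were exposed 4 h to 10 nM phosphorothioate 2-13-5 MOE gapmers with Lipofectamine 2000 at 5,000 cells/well. RNA was harvested after roughly 24 h recovery.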

[3] = gapmers targeted to SEQ ID NO: 1
[4] = gapmers targeted to SEQ ID NO: 2

413970 (antisense eG*e[5mC]*d[5mC]*dT*d[5mC]*dA*dG*dG*d[5mC]*dT*dG*d[5mC]*dT*d[5mC]*d[5mC]*eT*e[5mC]*eG*eG*e[5mC]) [compound 413970]
percent inhibition of TGF-beta1 (human TGF-beta1 mRNA [1]; 0.9375 nM): 48% | percent inhibition of TGF-beta1 (human TGF-beta1 mRNA [1]; 1.875 nM): 64% | percent inhibition of TGF-beta1 (human TGF-beta1 mRNA [1]; 3.75 nM): 81% | percent inhibition of TGF-beta1 (human TGF-beta1 mRNA [1]; 7.5 nM): 91% | percent inhibition of TGF-beta1 (human TGF-beta1 mRNA [1]; 15 nM): 94% | percent inhibition of TGF-beta1 (human TGF-beta1 mRNA [1]; 30 nM): 95% | % inhibition (human TGF-beta1 mRNA [2]; [3]): 87% | inhibition of a TGF-beta1 mRNA (human TGF-beta1 mRNA [2]): 60% and 65% and 70% and 75% and 80% and 85%

413979 (antisense eG*eG*d[5mC]*dT*d[5mC]*d[5mC]*d[5mC]*dA*dG*d[5mC]*dG*dG*d[5mC]*dA*dA*e[5mC]*eG*eG*eA*eA) [compound 413979]
percent inhibition of TGF-beta1 (human TGF-beta1 mRNA [1]; 0.9375 nM): 42% | percent inhibition of TGF-beta1 (human TGF-beta1 mRNA [1]; 1.875 nM): 62% | percent inhibition of TGF-beta1 (human TGF-beta1 mRNA [1]; 3.75 nM): 80% | percent inhibition of TGF-beta1 (human TGF-beta1 mRNA [1]; 7.5 nM): 92% | percent inhibition of TGF-beta1 (human TGF-beta1 mRNA [1]; 15 nM): 95% | percent inhibition of TGF-beta1 (human TGF-beta1 mRNA [1]; 30 nM): 94% | % inhibition (human TGF-beta1 mRNA [2]; [3]): 87% | inhibition of a TGF-beta1 mRNA (human TGF-beta1 mRNA [2]): 60% and 65% and 70% and 75% and 80% and 85%

414022 (antisense eG*eG*dG*d[5mC]*dT*d[5mC]*d[5mC]*dG*dG*dT*dT*d[5mC]*dT*dG*d[5mC]*eA*e[5mC]*eT*e[5mC]*eT) [compound 414022]
percent inhibition of TGF-beta1 (human TGF-beta1 mRNA [1]; 0.9375 nM): 31% | percent inhibition of TGF-beta1 (human TGF-beta1 mRNA [1]; 1.875 nM): 50% | percent inhibition of TGF-beta1 (human TGF-beta1 mRNA [1]; 3.75 nM): 76% | percent inhibition of TGF-beta1 (human TGF-beta1 mRNA [1]; 7.5 nM): 85% | percent inhibition of TGF-beta1 (human TGF-beta1 mRNA [1]; 15 nM): 91% | percent inhibition of TGF-beta1 (human TGF-beta1 mRNA [1]; 30 nM): 92% | IC50 (human TGF-beta1 mRNA [1]): 1.67 nM | % inhibition (human TGF-beta1 mRNA [2]; [3]): 84% | inhibition of a TGF-beta1 mRNA (human TGF-beta1 mRNA [2]): 60% and 65% and 70% and 75% and 80%

414037 (antisense eG*eG*dG*dT*dG*dT*d[5mC]*d[5mC]*dT*dT*dA*dA*dA*dT*dA*e[5mC]*eA*eG*e[5mC]*e[5mC]) [compound 414037]
percent inhibition of TGF-beta1 (human TGF-beta1 mRNA [1]; 0.9375 nM): 56% | percent inhibition of TGF-beta1 (human TGF-beta1 mRNA [1]; 1.875 nM): 74% | percent inhibition of TGF-beta1 (human TGF-beta1 mRNA [1]; 3.75 nM): 87% | percent inhibition of TGF-beta1 (human TGF-beta1 mRNA [1]; 7.5 nM): 93% | percent inhibition of TGF-beta1 (human TGF-beta1 mRNA [1]; 15 nM): 93% | percent inhibition of TGF-beta1 (human TGF-beta1 mRNA [1]; 30 nM): 92% | % inhibition (human TGF-beta1 mRNA [2]; [3]): 89% | inhibition of a TGF-beta1 mRNA (human TGF-beta1 mRNA [2]): 60% and 65% and 70% and 75% and 80% and 85%

414058 (antisense eA*eG*dG*dT*d[5mC]*dA*dA*dG*d[5mC]*d[5mC]*dA*dT*dG*dT*dG*eG*e[5mC]*eA*e[5mC]*e[5mC]) [compound 414058]
percent inhibition of TGF-beta1 (human TGF-beta1 mRNA [1]; 0.9375 nM): 46% | percent inhibition of TGF-beta1 (human TGF-beta1 mRNA [1]; 1.875 nM): 65% | percent inhibition of TGF-beta1 (human TGF-beta1 mRNA [1]; 3.75 nM): 78% | percent inhibition of TGF-beta1 (human TGF-beta1 mRNA [1]; 7.5 nM): 88% | percent inhibition of TGF-beta1 (human TGF-beta1 mRNA [1]; 15 nM): 87% | percent inhibition of TGF-beta1 (human TGF-beta1 mRNA [1]; 30 nM): 81% | % inhibition (human TGF-beta1 mRNA [2]; [4]): 81% | inhibition of a TGF-beta1 mRNA (human TGF-beta1 mRNA [2]): 60% and 65% and 70% and 75% and 80%

414102 (antisense eT*eT*dT*dG*dA*dA*d[5mC]*dT*dA*d[5mC]*dA*dT*dG*dG*dG*eT*e[5mC]*e[5mC]*eT*e[5mC]) [compound 414102]
percent inhibition of TGF-beta1 (human TGF-beta1 mRNA [1]; 0.9375 nM): 36% | percent inhibition of TGF-beta1 (human TGF-beta1 mRNA [1]; 1.875 nM): 54% | percent inhibition of TGF-beta1 (human TGF-beta1 mRNA [1]; 3.75 nM): 70% | percent inhibition of TGF-beta1 (human TGF-beta1 mRNA [1]; 7.5 nM): 84% | percent inhibition of TGF-beta1 (human TGF-beta1 mRNA [1]; 15 nM): 87% | percent inhibition of TGF-beta1 (human TGF-beta1 mRNA [1]; 30 nM): 84% | IC50 (human TGF-beta1 mRNA [1]): 1.42 nM | % inhibition (human TGF-beta1 mRNA [2]; [4]): 86% | inhibition of a TGF-beta1 mRNA (human TGF-beta1 mRNA [2]): 60% and 65% and 70% and 75% and 80% and 85%

414117 (antisense eA*eG*dT*dG*d[5mC]*dA*dA*dT*dA*d[5mC]*dG*dG*dT*dA*dT*eT*eG*e[5mC]*eA*eG) [compound 414117]
% inhibition (human TGF-beta1 mRNA [2]; [4]): 81% | inhibition of a TGF-beta1 mRNA (human TGF-beta1 mRNA [2]): 60% and 65% and 70% and 75% and 80%

414118 (antisense eA*eA*dT*dG*d[5mC]*d[5mC]*d[5mC]*dA*dA*dG*dT*d[5mC]*d[5mC]*dT*d[5mC]*eA*e[5mC]*e[5mC]*eG*eT) [compound 414118]
% inhibition (human TGF-beta1 mRNA [2]; [4]): 73% | inhibition of a TGF-beta1 mRNA (human TGF-beta1 mRNA [2]): 60% and 65% and 70%

414119 (antisense eT*eG*dT*dG*d[5mC]*dA*dA*d[5mC]*dA*dA*dA*dT*dG*dT*dT*eT*eA*eT*eT*eG) [compound 414119]
% inhibition (human TGF-beta1 mRNA [2]; [4]): 43%

414120 (antisense e[5mC]*eA*d[5mC]*dA*d[5mC]*d[5mC]*d[5mC]*dT*dG*dG*dA*dA*d[5mC]*dA*dT*eA*e[5mC]*eA*eA*eA) [compound 414120]
% inhibition (human TGF-beta1 mRNA [2]; [4]): 40%

414121 (antisense eG*e[5mC]*dA*dA*dT*dG*d[5mC]*dT*dT*dA*dA*dG*dA*d[5mC]*dA*eA*eG*e[5mC]*e[5mC]*eT) [compound 414121]
% inhibition (human TGF-beta1 mRNA [2]; [4]): 62% | inhibition of a TGF-beta1 mRNA (human TGF-beta1 mRNA [2]): 60%

414122 (antisense eT*e[5mC]*dA*d[5mC]*dT*dA*dA*d[5mC]*dA*d[5mC]*dA*dG*dA*dT*dT*eA*eA*eG*e[5mC]*eA) [compound 414122]
% inhibition (human TGF-beta1 mRNA [2]; [4]): 34%
